The test concerns the target T1, ligand binding domain of ERRγ (Homo sapiens, UniProt P62508).
T1 construct: 6His; made in house; host or cells: E. coli BL21(DE3)
T1 sequence (P62508 229-458): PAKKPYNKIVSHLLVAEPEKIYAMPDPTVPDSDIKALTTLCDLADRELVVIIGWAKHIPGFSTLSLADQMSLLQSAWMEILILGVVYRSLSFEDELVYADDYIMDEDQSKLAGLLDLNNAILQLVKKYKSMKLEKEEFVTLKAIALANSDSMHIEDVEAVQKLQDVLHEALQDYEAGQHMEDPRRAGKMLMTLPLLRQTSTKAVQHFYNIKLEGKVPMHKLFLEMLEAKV
In words: ThermoFluor thermal shift assay, ERRγ ligand binding domain. Particulars: 0.1 mg/mL protein, 25 mM HEPES pH 8.0, Tm free protein 49.6 °C. The method, then:
The vector was in E. coli BL21(DE3) and cultured in Minimal media (M9) at 37° C. to an OD595 0.6-0.8, followed by induction at 15° C. with 0.4 mM IPTG for 20 hours. The next day, the culture was harvested and lysed in buffer A (Buffer A: 20 mM Tris-HCl, pH 7.5, 0.4 M NaCl and 5 mM Imidazole) using an Emulsiflex-C5 french press (Avestin). Lysates were spun at 40,000×g for 45 minutes to remove insoluble material. The clarified lysate was applied on a Ni-NTA column and eluted with a linear gradient of imidazole. The protein was further purified by applying the eluent on a Superdex 200 HR 10/30 column (Amersham Pharmacia Biotech) equilibrated with Buffer B (Buffer B: 20 mM Tris-HCl pH 7.5, 0.2M NaCl, 1 mM EDTA and 1 mM DTT). […] Fractions were pulled and concentrated to 4 mg/ml and frozen in liquid nitrogen and stored at −80° C.
The ligand binding domain of ERRγ was screened against a library of known estrogen activators and a generic drug library using ThermoFluor®. ThermoFluor® is a miniaturized thermal shift assay, that has been developed for HTS applications; as a secondary assay for confirmation and characterization of hits; and as a functional assay to characterize orphan proteins. ThermoFluor® exploits the well-described phenomenon of ligand induced stabilization of macromolecules. Ligand binding energy adds directly to the ground state energy of a macromolecule and results in increased thermal stability. The degree of stabilization is proportional to the binding affinity of the ligand for the macromolecule.
Assay plates were prepared by dispensing 2 μL of a protein-dye solution and 2 μL of the test compound in a 384-well plate. […] Finally 1 μL of mineral oil was dispensed on top to prevent evaporation during the high throughput screen (HTS). ThermoFluor® is an HTS assay that measures protein unfolding based on fluorescence detection of the denatured form of the protein. The reporter for the protein unfolding event is the environmentally sensitive dye ANS that is incorporated in the screening buffer. During a typical experiment the 384-well plate is heated at a ramping rate of 1° C./min and the thermal unfolding of the protein is monitored at 1° C. intervals by measuring fluorescence changes detected through a CCD camera. Captured images are integrated and a melting curve is generated that relates fluorescence to fraction of unfolded protein as a function of temperature. […] Hits were identified from the screen by measuring an increase in the melting temperature of the protein.
In order to estimate binding affinities, it was taken into account that the oligomeric state of ERRγ which is a dimer (N2), and that of a single ligand (Lf) can interact per monomer subunit with equal affinity. The melting curve for such a system is described by the following three equilibria:
To compare dissociation constants at a common reference temperature, Tref, the following equation was used: […]
In the thermodynamic treatment of the data the following assumptions were made: i) the small ligand interacts only with the folded state of the protein, ii) the reactions are reversible; iii) the unfolding protein reaction is a two-state process and iv) ideal dilute solutions are being used (specific activity for protein and ligands is equal to 1).

Broadly, the ΔTm is the shift of the melting midpoint relative to a reference. For the compound `Cc1cc(O)ccc1Cl` [ClCH3Ph, 4-chloro, 3-methyl phenol], where the note is “100 μM test compound”, the “ΔTm, thermal stabilization of ERRγ” value turned out to be 3.9 °C. Also, the shift in melting temperature (ΔTm) at 100 µM (pH 8, read-out: ΔTm, thermal stabilization of ERRγ, 100 μM test compound) was 4 to 5.7 °C.
